Results reported in patent publication US6355799B1, “Substituted benzene compounds, process for their preparation, and herbicidal and defoliant compositions containing them” (ISK Americas Incorporated, priority 1997, dated 2002).

Columns and labels:
Type in all cases: in vivo
[1] = system: barnyardgrass (Echinochloa crus-galli, ECHCG); experiment: Post-emerge test, greenhouse herbicide activity screening; conditions: post-emerge, phytotoxicity rating 0-100 at 14 days after application
Procedure, shortened: (§1)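 Compounds in acetone were track-sprayed at 15-1000 g ai/ha (187 l/ha) on sandy loam pots: pre-emerge one day after seeding, post-emerge at 2-3 leaf stage with 0.25% v/v non-ionic surfactant. Phytotoxicity was rated 14 days later on a 0 (no damage) to 100 (complete death) scale.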

[2] = system: redroot pigweed (Amaranthus retroflexus, AMARE); experiment: as above; conditions: post-emerge, phytotoxicity rating 0-100 at 14 days after application
Procedure, shortened: as §1

[3] = system: large crabgrass (Digitaria sanguinalis, DIGSA); experiment: as above; conditions: post-emerge, phytotoxicity rating 0-100 at 14 days after application
Procedure, shortened: as §1

[4] = system: velvetleaf (Abutilon theophrasti, ABUTH); experiment: as above; conditions: post-emerge, phytotoxicity rating 0-100 at 14 days after application
Procedure, shortened: as §1

[5] = system: sicklepod (Cassia obtusifolia, CASOB); experiment: as above; conditions: post-emerge, phytotoxicity rating 0-100 at 14 days after application
Procedure, shortened: as §1

[6] = system: ivyleaf morningglory (Ipomoea hederacea, IPOHE); experiment: as above; conditions: post-emerge, phytotoxicity rating 0-100 at 14 days after application
Procedure, shortened: as §1

[7] = system: lambsquarters (Chenopodium album, CHEAL); experiment: as above; conditions: post-emerge, phytotoxicity rating 0-100 at 14 days after application
Procedure, shortened: as §1

[8] = system: johnsongrass (Sorghum halepense, SORHA); experiment: as above; conditions: post-emerge, phytotoxicity rating 0-100 at 14 days after application
Procedure, shortened: as §1

[9] = system: green foxtail (Setaria viridis, SETVI); experiment: as above; conditions: post-emerge, phytotoxicity rating 0-100 at 14 days after application
Procedure, shortened: as §1

[10] = system: barnyardgrass (Echinochloa crus-galli, ECHCG); experiment: Pre-emerge test, greenhouse herbicide activity screening; conditions: pre-emerge, phytotoxicity rating 0-100 at 14 days after application
Procedure, shortened: (§2)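 Compounds in acetone were track-sprayed at 187 l/ha, 15–1000 g ai/ha, onto sandy loam pots. Pre-emerge seeds were sown one day before spraying, with surface watering afterwards. Post-emerge plants were at the 2–3 leaf stage and sprayed with 0.25% v/v non-ionic surfactant. Injury was rated 0–100 at 14 days.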

[11] = system: large crabgrass (Digitaria sanguinalis, DIGSA); experiment: as above; conditions: pre-emerge, phytotoxicity rating 0-100 at 14 days after application
Procedure, shortened: as §2

[12] = system: velvetleaf (Abutilon theophrasti, ABUTH); experiment: as above; conditions: pre-emerge, phytotoxicity rating 0-100 at 14 days after application
Procedure, shortened: as §2

[13] = system: sicklepod (Cassia obtusifolia, CASOB); experiment: as above; conditions: pre-emerge, phytotoxicity rating 0-100 at 14 days after application
Procedure, shortened: as §2

[14] = system: ivyleaf morningglory (Ipomoea hederacea, IPOHE); experiment: as above; conditions: pre-emerge, phytotoxicity rating 0-100 at 14 days after application
Procedure, shortened: as §2

[15] = system: lambsquarters (Chenopodium album, CHEAL); experiment: as above; conditions: pre-emerge, phytotoxicity rating 0-100 at 14 days after application
Procedure, shortened: as §2

[16] = system: johnsongrass (Sorghum halepense, SORHA); experiment: as above; conditions: pre-emerge, phytotoxicity rating 0-100 at 14 days after application
Procedure, shortened: as §2

[17] = system: green foxtail (Setaria viridis, SETVI); experiment: as above; conditions: pre-emerge, phytotoxicity rating 0-100 at 14 days after application
Procedure, shortened: as §2

[18] = system: upland rice (Oryza sp., var. Tebonnet, RICE); experiment: Post-emerge test, crop safety; conditions: post-emerge, crop damage rating 0-100 at 14 days after application
Procedure, shortened: as §2

[19] = system: field corn (Zea mays L., var. Dekalb 535, CORN); experiment: Post-emerge test, crop safety; conditions: post-emerge, crop damage rating 0-100 at 14 days after application
Procedure, shortened: as §2

[20] = system: redroot pigweed (Amaranthus retroflexus, AMARE); experiment: Pre-emerge test, greenhouse herbicide activity screening; conditions: pre-emerge, phytotoxicity rating 0-100 at 14 days after application
Procedure, shortened: as §1

[21] = system: upland rice (Oryza sp., var. Tebonnet, RICE); experiment: Pre-emerge test, crop safety; conditions: crop damage, pre-emerge, phytotoxicity rating 0-100 at 14 days after application
Procedure, shortened: (§3)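 Sandy loam pots; pre-emerge: sown 1 d pre-spray, surface-watered after, then bottom-watered. Post-emerge: sown 8–21 d before, 2–3 leaf stage, + 0.25% v/v NIS, bottom-watered. Acetone, 187 l/ha track spray, 15–1000 g ai/ha. 0–100 injury score, day 14.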

[22] = system: field corn (Zea mays L., var. Dekalb 535, CORN); experiment: Pre-emerge test, crop safety; conditions: crop damage, pre-emerge, phytotoxicity rating 0-100 at 14 days after application
Procedure, shortened: as §3

Compound: O=C(Nc1cc(Cl)ccc1N1C(=O)C2=C(CCCC2)C1=O)c1ccc2ccccc2c1 [8-36]
- Post-emerge Herbicidal Activity ECHCG ([1]; 63 g ai/ha): 0
- Post-emerge Herbicidal Activity ECHCG ([1]; 250 g ai/ha): 20
- Post-emerge Herbicidal Activity AMARE ([2]; 63 g ai/ha): 95
- Post-emerge Herbicidal Activity AMARE ([2]; 250 g ai/ha): 90
- Post-emerge Herbicidal Activity DIGSA ([3]; 63 g ai/ha): 10
- Post-emerge Herbicidal Activity DIGSA ([3]; 250 g ai/ha): 5
- Post-emerge Herbicidal Activity ABUTH ([4]; 63 g ai/ha): 100
- Post-emerge Herbicidal Activity ABUTH ([4]; 250 g ai/ha): 100
- Post-emerge Herbicidal Activity CASOB ([5]; 63 g ai/ha): 70
- Post-emerge Herbicidal Activity CASOB ([5]; 250 g ai/ha): 95
- Post-emerge Herbicidal Activity IPOHE ([6]; 63 g ai/ha): 100
- Post-emerge Herbicidal Activity IPOHE ([6]; 250 g ai/ha): 85
- Post-emerge Herbicidal Activity CHEAL ([7]; 63 g ai/ha): 95
- Post-emerge Herbicidal Activity CHEAL ([7]; 250 g ai/ha): 100
- Post-emerge Herbicidal Activity SORHA ([8]; 63 g ai/ha): 0
- Post-emerge Herbicidal Activity SORHA ([8]; 250 g ai/ha): 10
- Post-emerge Herbicidal Activity SETVI ([9]; 63 g ai/ha): 10
- Post-emerge Herbicidal Activity SETVI ([9]; 250 g ai/ha): 10
- Pre-emerge Herbicidal Activity ECHCG ([10]; rate 63 g ai/ha): 0
- Pre-emerge Herbicidal Activity ECHCG ([10]; rate 250 g ai/ha): 0
- Pre-emerge Herbicidal Activity DIGSA ([11]; rate 63 g ai/ha): 0
- Pre-emerge Herbicidal Activity DIGSA ([11]; rate 250 g ai/ha): 40
- Pre-emerge Herbicidal Activity ABUTH ([12]; rate 63 g ai/ha): 80
- Pre-emerge Herbicidal Activity ABUTH ([12]; rate 250 g ai/ha): 30
- Pre-emerge Herbicidal Activity CASOB ([13]; rate 63 g ai/ha): 10
- Pre-emerge Herbicidal Activity CASOB ([13]; rate 250 g ai/ha): 30
- Pre-emerge Herbicidal Activity IPOHE ([14]; rate 63 g ai/ha): 10
- Pre-emerge Herbicidal Activity IPOHE ([14]; rate 250 g ai/ha): 20
- Pre-emerge Herbicidal Activity CHEAL ([15]; rate 63 g ai/ha): 100
- Pre-emerge Herbicidal Activity CHEAL ([15]; rate 250 g ai/ha): 100
- Pre-emerge Herbicidal Activity SORHA ([16]; rate 63 g ai/ha): 0
- Pre-emerge Herbicidal Activity SORHA ([16]; rate 250 g ai/ha): 0
- Pre-emerge Herbicidal Activity SETVI ([17]; rate 63 g ai/ha): 0
- Pre-emerge Herbicidal Activity SETVI ([17]; rate 250 g ai/ha): 30
- Post-emerge Herbicidal Activity RICE ([18]; 63 g ai/ha): 10
- Post-emerge Herbicidal Activity RICE ([18]; 250 g ai/ha): 20
- Post-emerge Herbicidal Activity CORN ([19]; 63 g ai/ha): 10
- Post-emerge Herbicidal Activity CORN ([19]; 250 g ai/ha): 15
- Pre-emerge Herbicidal Activity AMARE ([20]; rate 63 g ai/ha): 100
- Pre-emerge Herbicidal Activity AMARE ([20]; rate 250 g ai/ha): 100
- Pre-emerge Herbicidal Activity RICE ([21]; rate 63 g ai/ha): 20
- Pre-emerge Herbicidal Activity RICE ([21]; rate 250 g ai/ha): 40
- Pre-emerge Herbicidal Activity CORN ([22]; rate 63 g ai/ha): 0
- Pre-emerge Herbicidal Activity CORN ([22]; rate 250 g ai/ha): 0
